Laboratory results from patent publication US5464869A, “Use of dimercaptan acids, salts and metabolites thereof as antiretroviral treatments” (Ethicon, Inc., priority 1995, dated 1995).
Several values for one entry are separate records, joined by “and”; a condition that tells them apart may be missing. Identical values can stand only once.

Assays:
[1] = calcium, magnesium, manganese, iron and zinc; cited from earlier work
[2] = lead, mercury and arsenic; numerous animal studies; cited from earlier work
HIV-1 = experiment: microbe, parasite or virus in culture
Text: (§1) FIGS. 1-4 are plots of the log10 of the meso-2,3 dimercaptosuccinic acid concentrations (as moles/L or Molar) against the measured test values expressed as a percentage of the uninfected, untreated control values.
The procedure used to test dimercaptosuccinic acid's activity against Human Immunodeficiency Virus (HIV) is the assay developed by Owen S. Weislow et al. described in "Journal of the National Cancer Institute," Vol. 81, No. 8, April 19, 1989 which is hereby incorporated herein by reference. The assay basically involves the killing of T4 lymphocytes by HIV. Small amounts of HIV are added to cells, and a complete cycle of virus reproduction is necessary to obtain the required cell killing. Agents that interact with virions, cells, or virus gene-products to interfere with viral activities will protect cells from cytolysis. All tests are compared with at least one positive (e.g., AZT-treated) control done at the same time under identical conditions.
(§2) 1. Dimercaptosuccinic acid was dissolved in dimethyl sulfoxide (unless otherwise instructed) then diluted 1:100 in cell culture medium before preparing serial half-log10 dilutions. T4 lymphocytes (CEM cell line) were added and after a brief interval HIV-1 is added, resulting in a 1:200 final dilution of the compound. Uninfected cells with the compound serve as a toxicity control, and infected and uninfected cells without the compound serve as basic controls.
(§3) 2. The cultures were incubated at 37° in a 5% carbon dioxide atmosphere for 6 days.
(§4) 3. The tetrazolium salt, XTT, was added to all wells, and cultures were incubated to allow formazan color development by viable cells.
(§5) 4. Individual wells were analyzed spectrophotometrically to quantitate formazan production, and in addition were viewed microscopically for detection of viable cells and confirmation of protective activity.
(§6) 5. Drug-treated virus-infected cells were compared with drug-treated noninfected cells and with other appropriate controls (untreated infected and untreated noninfected cells, drug-containing wells without cells, etc.) on the same plate.
6. The data was reviewed in comparison with four other tests done at the same time and a determination about activity was made.

[3] = test system: T4 lymphocytes (CEM cell line); experiment: Toxicity control: growth inhibition of uninfected T4 lymphocytes (CEM cell line), XTT; conditions: for Uninfected response: uninfected CEM cells, vs uninfected untreated control, 6 days, 8640 min
Method: as §1, §2, §3, §4, §5, §6

O=C(O)[C@@H](S)[C@@H](S)C(=O)O [dimercaptosuccinic acid, meso-2,3 dimercaptosuccinic acid]
Effect on excretion of essential minerals [1]: not to increase the excretion of essential minerals
Heavy metal chelating effect [2]: effective heavy metal chelating agent for lead, mercury and arsenic
Infected response (HIV-1; 1.40 × 10^-4 Molar, HIV-1 infected CEM cells, vs uninfected untreated control, 6 days, 140 µM, 8640 min, 140 µM): 84.32% of Control and 103.60% of Control and 95.01% of Control
Conclusion (determination of activity) (HIV-1; HIV-1, CEM cells, 6 days, Tables I-IV): CONFIRMED ACTIVE
viability at 140 µM (HIV-1; Human immunodeficiency virus 1, CCRF-CEM, in Homo sapiens, 144 h, read-out: Infected response, 1.40 × 10^-4 Molar, HIV-1 infected CEM cells, vs uninfected untreated control, 6 days): 94.3%
Overall conclusion on antiretroviral effectiveness (HIV-1; drawn from data of Tables I-IV): effective as a treatment for retroviruses in warm blooded animals
Uninfected response ([3]; 1.40 × 10^-4 Molar, 140 µM, 140 µM): 80.02% of Control and 81.43% of Control and 107.87% of Control and 105.07% of Control
Uninfected response ([3]; 1.40 × 10^-5 Molar, 14 µM, 14 µM): 74.62% of Control and 87.58% of Control and 118.28% of Control and 102.83% of Control
Uninfected response ([3]; 4.30 × 10^-4 Molar, 430 µM, 430 µM): 106.57% of Control and 107.46% of Control and 124.09% of Control and 128.49% of Control
Uninfected response ([3]; 4.40 × 10^-5 Molar, 44 µM, 44 µM): 84.59% of Control and 85.17% of Control and 125.62% of Control and 102.99% of Control
IC50 ([3]; Homo sapiens, CCRF-CEM, 144 h, read-out: 50% inhibitory concentration (IC50)): > 1400 µM
